In publication PMC6437697 (Journal of Medicinal Chemistry, 2019):

Key:
Assay in all cases: KINOMEscan
[1] = target: T1, ABL1(F317I)-phosphorylated (Homo sapiens, UniProt P00519, F317I); type: binding; conditions: read-out: % control activity remaining
T1 construct: purchased Eurofins DiscoverX KINOMEscan

CDK4-cyclinD1 = target: T2, CDK4-cyclinD1 (Homo sapiens, UniProt P11802); type: binding; conditions: read-out: % control activity remaining
T2 construct: purchased Eurofins DiscoverX KINOMEscan

CIT = target: T3, CIT (Homo sapiens, UniProt O14578); type: binding; conditions: read-out: % control activity remaining
T3 construct: purchased Eurofins DiscoverX KINOMEscan

DCAMKL1 = target: T4, DCAMKL1 (Homo sapiens, UniProt O15075); type: binding; conditions: read-out: % control activity remaining
T4 construct: purchased Eurofins DiscoverX KINOMEscan
T4 sequence (O15075 1-740): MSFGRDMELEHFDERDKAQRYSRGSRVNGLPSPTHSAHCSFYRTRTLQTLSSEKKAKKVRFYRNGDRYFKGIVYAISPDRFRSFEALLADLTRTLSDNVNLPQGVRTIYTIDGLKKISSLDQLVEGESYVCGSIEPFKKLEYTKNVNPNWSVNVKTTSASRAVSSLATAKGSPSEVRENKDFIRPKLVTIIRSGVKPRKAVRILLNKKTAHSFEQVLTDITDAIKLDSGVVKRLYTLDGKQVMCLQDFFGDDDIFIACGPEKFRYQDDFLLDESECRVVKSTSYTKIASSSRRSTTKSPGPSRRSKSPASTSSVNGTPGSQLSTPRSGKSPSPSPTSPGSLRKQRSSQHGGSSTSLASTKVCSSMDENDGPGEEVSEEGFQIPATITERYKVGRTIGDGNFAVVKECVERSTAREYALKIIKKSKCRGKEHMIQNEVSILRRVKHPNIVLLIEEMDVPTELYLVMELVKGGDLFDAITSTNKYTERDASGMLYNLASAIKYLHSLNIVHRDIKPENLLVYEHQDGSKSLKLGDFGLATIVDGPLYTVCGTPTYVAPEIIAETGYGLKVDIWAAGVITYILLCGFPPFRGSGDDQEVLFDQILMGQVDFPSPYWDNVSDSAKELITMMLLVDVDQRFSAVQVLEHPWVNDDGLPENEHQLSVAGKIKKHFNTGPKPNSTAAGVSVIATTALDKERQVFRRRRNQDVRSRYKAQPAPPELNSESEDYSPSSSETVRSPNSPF

FLT3(ITD) = type: binding, human; conditions: 1000 nM
KIT-autoinhibited = target: T5, KIT-autoinhibited (Homo sapiens, UniProt P10721); type: binding; conditions: read-out: % control activity remaining
T5 construct: purchased Eurofins DiscoverX KINOMEscan

MAP4K4 = target: T6, MAP4K4 (Homo sapiens, UniProt O95819); type: binding; conditions: read-out: % control activity remaining
T6 construct: purchased Eurofins DiscoverX KINOMEscan

PHKG1 = target: T7, PHKG1 (Homo sapiens, UniProt Q16816); type: binding; conditions: read-out: % control activity remaining
T7 construct: purchased Eurofins DiscoverX KINOMEscan

TSSK1B = target: T8, TSSK1B (Homo sapiens, UniProt Q9BXA7); type: binding; conditions: read-out: % control activity remaining
T8 construct: purchased Eurofins DiscoverX KINOMEscan
T8 sequence (Q9BXA7 1-367): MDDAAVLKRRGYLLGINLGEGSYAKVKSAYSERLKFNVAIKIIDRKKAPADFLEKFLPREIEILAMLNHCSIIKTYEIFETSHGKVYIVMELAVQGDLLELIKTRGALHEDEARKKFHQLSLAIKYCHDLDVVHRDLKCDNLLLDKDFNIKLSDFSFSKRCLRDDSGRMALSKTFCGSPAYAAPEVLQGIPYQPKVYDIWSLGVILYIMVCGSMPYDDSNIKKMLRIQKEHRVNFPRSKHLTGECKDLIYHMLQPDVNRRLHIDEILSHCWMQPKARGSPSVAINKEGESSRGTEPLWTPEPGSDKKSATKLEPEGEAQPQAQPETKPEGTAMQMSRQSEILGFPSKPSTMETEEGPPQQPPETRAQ

TYRO3 = target: T9, TYRO3 (Homo sapiens, UniProt Q06418); type: binding; conditions: read-out: % control activity remaining
T9 construct: purchased Eurofins DiscoverX KINOMEscan
T9 sequence (Q06418 41-890): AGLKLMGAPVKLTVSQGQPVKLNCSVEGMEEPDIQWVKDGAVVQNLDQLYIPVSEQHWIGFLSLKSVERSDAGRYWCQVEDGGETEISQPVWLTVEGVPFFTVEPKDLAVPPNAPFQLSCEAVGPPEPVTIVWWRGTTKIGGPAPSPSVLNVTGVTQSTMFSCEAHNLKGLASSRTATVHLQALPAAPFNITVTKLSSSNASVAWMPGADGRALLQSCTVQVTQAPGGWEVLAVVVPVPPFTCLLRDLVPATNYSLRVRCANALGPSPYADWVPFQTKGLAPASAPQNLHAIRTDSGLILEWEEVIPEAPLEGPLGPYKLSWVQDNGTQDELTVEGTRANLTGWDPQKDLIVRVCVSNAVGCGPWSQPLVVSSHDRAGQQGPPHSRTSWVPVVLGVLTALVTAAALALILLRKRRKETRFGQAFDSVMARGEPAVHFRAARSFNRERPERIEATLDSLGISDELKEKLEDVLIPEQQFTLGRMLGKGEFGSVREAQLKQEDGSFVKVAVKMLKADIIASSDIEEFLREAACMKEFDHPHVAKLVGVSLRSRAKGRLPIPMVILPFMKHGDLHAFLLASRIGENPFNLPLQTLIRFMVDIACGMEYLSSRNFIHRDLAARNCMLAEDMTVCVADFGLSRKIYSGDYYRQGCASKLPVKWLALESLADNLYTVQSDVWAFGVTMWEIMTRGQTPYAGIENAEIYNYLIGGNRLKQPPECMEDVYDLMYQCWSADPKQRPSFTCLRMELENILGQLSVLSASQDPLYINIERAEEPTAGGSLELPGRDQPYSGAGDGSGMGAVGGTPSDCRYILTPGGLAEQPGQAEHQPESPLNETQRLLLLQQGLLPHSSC

T2 sequence (P11802 whole entry): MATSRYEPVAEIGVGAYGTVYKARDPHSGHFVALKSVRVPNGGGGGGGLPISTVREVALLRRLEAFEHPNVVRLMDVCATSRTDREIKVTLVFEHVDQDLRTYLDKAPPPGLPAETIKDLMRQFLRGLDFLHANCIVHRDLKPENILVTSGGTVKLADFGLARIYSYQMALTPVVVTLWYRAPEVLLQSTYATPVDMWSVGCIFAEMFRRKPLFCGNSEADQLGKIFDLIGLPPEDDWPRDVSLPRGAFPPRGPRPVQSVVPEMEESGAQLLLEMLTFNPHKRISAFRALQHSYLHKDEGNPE
T2 sequence (P24385 whole entry partner): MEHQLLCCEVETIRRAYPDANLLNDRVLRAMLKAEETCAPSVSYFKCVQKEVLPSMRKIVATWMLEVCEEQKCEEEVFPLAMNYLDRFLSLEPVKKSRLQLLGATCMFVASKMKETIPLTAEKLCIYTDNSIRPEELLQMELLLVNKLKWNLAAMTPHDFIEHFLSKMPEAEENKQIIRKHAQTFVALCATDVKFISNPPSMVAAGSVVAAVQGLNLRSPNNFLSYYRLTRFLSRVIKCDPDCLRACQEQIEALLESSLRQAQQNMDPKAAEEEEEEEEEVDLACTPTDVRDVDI
T6 sequence (O95819 whole entry): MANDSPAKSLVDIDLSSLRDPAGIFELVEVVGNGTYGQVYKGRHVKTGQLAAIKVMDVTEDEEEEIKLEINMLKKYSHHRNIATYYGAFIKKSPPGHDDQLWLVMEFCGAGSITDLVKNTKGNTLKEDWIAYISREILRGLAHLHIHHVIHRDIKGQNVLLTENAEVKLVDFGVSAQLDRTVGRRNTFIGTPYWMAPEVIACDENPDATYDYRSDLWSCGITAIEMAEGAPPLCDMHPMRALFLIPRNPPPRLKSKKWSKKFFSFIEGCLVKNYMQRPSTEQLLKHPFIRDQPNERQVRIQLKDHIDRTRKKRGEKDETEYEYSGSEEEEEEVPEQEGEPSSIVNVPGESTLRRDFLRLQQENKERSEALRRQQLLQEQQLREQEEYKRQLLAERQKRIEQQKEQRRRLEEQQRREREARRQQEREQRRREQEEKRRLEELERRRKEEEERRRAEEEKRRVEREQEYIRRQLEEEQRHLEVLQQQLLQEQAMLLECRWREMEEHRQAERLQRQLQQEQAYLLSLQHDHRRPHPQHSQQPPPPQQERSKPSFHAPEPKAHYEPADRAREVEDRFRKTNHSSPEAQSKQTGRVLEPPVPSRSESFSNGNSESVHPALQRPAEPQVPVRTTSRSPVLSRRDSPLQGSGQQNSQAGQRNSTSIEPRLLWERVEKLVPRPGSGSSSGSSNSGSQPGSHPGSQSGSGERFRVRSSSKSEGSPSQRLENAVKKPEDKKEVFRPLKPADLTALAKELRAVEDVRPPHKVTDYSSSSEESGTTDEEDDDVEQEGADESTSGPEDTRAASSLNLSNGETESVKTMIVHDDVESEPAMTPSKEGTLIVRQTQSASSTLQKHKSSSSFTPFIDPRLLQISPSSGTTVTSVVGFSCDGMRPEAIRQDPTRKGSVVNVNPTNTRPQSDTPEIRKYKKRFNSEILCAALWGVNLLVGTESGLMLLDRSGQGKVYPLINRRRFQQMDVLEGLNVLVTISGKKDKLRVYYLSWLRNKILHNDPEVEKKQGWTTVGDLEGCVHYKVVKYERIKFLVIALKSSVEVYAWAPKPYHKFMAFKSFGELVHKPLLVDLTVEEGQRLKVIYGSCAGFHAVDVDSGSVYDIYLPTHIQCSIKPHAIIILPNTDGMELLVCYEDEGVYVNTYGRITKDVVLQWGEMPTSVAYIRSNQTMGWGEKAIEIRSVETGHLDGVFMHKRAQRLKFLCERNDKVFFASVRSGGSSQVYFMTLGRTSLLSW
T3 sequence (O14578 whole entry): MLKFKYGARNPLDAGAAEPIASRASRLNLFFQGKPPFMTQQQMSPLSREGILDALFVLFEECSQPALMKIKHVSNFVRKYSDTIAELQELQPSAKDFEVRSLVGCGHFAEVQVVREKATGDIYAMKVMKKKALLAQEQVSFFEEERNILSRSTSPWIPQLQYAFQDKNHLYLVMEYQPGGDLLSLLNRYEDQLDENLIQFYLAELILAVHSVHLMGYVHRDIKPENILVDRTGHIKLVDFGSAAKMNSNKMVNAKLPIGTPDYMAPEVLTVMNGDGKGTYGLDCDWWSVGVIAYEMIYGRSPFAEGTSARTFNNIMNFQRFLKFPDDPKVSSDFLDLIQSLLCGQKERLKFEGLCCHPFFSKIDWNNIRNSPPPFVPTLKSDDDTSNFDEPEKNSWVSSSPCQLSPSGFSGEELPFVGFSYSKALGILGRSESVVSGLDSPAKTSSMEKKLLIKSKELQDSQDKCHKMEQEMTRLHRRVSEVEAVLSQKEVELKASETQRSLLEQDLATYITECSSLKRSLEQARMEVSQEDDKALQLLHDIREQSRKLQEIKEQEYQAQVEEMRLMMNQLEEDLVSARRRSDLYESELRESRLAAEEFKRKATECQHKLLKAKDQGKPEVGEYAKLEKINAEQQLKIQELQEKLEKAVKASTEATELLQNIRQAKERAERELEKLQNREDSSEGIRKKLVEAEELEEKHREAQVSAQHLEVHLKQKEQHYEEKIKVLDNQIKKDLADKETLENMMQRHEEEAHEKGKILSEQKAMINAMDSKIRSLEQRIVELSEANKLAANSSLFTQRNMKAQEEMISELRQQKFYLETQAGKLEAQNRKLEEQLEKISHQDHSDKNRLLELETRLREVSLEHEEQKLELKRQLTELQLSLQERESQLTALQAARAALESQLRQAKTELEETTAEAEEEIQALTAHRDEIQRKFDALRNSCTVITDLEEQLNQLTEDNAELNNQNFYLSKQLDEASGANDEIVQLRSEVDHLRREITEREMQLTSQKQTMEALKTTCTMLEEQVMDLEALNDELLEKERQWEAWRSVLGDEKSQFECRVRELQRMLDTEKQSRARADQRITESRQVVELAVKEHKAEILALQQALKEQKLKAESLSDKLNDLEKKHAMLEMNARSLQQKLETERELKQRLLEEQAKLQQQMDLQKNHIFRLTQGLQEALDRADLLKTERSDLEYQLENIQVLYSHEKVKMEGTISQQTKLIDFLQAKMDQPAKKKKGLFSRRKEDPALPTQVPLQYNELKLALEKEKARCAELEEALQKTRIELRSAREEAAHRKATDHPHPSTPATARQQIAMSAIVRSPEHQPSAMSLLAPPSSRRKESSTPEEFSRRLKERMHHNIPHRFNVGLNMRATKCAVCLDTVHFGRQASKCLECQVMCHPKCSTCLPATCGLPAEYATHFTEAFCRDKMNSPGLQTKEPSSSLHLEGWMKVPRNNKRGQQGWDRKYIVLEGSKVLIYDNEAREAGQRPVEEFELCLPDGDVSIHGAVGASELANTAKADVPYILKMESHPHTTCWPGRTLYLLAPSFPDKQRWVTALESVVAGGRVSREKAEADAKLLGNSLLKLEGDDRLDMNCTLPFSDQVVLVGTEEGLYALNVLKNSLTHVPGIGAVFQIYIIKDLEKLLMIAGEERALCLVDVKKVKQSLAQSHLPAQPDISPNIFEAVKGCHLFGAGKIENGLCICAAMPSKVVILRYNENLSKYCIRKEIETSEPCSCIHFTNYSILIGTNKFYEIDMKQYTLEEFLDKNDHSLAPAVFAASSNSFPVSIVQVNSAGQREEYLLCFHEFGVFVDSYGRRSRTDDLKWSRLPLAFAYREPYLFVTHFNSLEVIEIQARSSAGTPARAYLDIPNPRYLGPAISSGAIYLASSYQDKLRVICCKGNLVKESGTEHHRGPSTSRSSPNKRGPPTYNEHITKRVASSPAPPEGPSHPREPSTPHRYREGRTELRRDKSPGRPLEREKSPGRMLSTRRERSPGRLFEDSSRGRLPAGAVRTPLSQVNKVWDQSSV
T1 sequence (P00519 whole entry F317I): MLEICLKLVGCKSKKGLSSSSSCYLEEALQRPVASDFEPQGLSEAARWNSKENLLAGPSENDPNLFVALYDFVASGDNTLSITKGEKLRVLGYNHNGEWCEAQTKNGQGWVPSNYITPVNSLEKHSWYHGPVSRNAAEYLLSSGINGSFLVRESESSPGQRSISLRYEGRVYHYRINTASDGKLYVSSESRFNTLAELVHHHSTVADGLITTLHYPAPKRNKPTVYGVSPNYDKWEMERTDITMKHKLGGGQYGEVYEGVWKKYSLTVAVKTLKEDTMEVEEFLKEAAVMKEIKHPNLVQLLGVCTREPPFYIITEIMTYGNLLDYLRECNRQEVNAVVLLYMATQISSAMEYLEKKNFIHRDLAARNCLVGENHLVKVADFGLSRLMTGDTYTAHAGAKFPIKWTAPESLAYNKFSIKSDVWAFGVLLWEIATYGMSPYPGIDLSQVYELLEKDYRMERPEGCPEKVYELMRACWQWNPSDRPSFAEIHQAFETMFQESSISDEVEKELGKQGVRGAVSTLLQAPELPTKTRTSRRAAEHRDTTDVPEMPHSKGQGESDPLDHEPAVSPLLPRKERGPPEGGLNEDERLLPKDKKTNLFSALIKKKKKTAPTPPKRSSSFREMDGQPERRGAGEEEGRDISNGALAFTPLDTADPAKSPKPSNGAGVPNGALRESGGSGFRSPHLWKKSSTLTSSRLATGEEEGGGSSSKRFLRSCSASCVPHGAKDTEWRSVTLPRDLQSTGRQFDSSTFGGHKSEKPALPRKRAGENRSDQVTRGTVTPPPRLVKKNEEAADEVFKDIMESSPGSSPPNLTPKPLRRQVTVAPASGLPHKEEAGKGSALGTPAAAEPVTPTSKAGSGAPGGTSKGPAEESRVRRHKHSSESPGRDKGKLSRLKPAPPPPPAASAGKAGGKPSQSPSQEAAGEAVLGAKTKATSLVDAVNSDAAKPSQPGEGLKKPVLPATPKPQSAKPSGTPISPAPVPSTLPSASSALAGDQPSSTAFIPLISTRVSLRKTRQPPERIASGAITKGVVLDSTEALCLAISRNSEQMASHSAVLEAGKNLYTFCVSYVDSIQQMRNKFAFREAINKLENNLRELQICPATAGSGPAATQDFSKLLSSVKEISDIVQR

Work on `Clc1cc(NCC2CC2)c2ncc(-c3ccc4[nH]ncc4c3)n2n1` [compound 2, 6-Chloro-N-(cyclopropylmethyl)-3-(1H-indazol-5-yl)imidazo[1,2-b]pyridazin-8-amine] yielded a remaining binding at 1 µM [1] of 93%, a remaining binding at 1 µM (CDK4-cyclinD1) of 88% and a remaining binding at 1 µM (CIT) of 73%. For the same compound, the remaining binding at 1 µM (DCAMKL1) was 99%, the “% control activity remaining” value (FLT3(ITD)) was 5.6% and the remaining binding at 1 µM (KIT-autoinhibited) was 82%. For the same compound, the remaining binding at 1 µM (MAP4K4) was 92%, the remaining binding at 1 µM (PHKG1) was 91% and the remaining binding at 1 µM (TSSK1B) was 100%. The remaining binding at 1 µM (TYRO3) was 69%.
For `O=C(CN1CCOCC1)N[C@H]1CC[C@H](Nc2cc(Cl)nn3c(-c4ccc5[nH]ncc5c4)cnc23)CC1` [compound 26], the remaining binding at 1 µM [1] was 8.1%, the remaining binding at 1 µM (CDK4-cyclinD1) was 93% and the remaining binding at 1 µM (CIT) was 74%. The remaining binding at 1 µM (DCAMKL1) was 100%, the “% control activity remaining” value (FLT3(ITD)) was 0.25% and the remaining binding at 1 µM (KIT-autoinhibited) was 34%. It also gave a remaining binding at 1 µM (MAP4K4) of 75%, a remaining binding at 1 µM (PHKG1) of 17% and a remaining binding at 1 µM (TSSK1B) of 92%. For the same compound, the remaining binding at 1 µM (TYRO3) was 86%.
`CN1CCC(CNc2cc(Cl)nn3c(-c4cc5nc(Nc6ccccc6)[nH]c5cc4F)cnc23)CC1` [compound 31, 6-Chloro-3-(6-fluoro-2-(phenylamino)-1H-benzo[d]imidazol-5-yl)-N-((1-methylpiperidin-4-yl)methyl)imidazo[1,2-b]pyridazin-8-amine] was tested, and the remaining binding at 1 µM [1] was 76%, the remaining binding at 1 µM (CDK4-cyclinD1) was 87% and the remaining binding at 1 µM (CIT) was 85%. For the same compound, the remaining binding at 1 µM (DCAMKL1) was 81%, the “% control activity remaining” value (FLT3(ITD)) was 91% and the remaining binding at 1 µM (KIT-autoinhibited) was 98%. For the same compound, the remaining binding at 1 µM (MAP4K4) was 100%, the remaining binding at 1 µM (PHKG1) was 92% and the remaining binding at 1 µM (TSSK1B) was 88%. The remaining binding at 1 µM (TYRO3) was 99%.
